From patent US10952992B2, “Methods of treating intraocular pressure with activators of Tie-2” (Aerpio Pharmaceuticals, Inc., priority 2015, dated 2021)

Legend:
[1] = Example 2 plasma concentrations and pharmacokinetics after topical ocular, subcutaneous, intravitreal administration; format: in vivo, male New Zealand White rabbits; conditions: all routes and formulations
Experimental: (§1) To measure the concentration of Compound 1 in plasma and ocular tissues following topical ocular, subcutaneous, and intravitreal administration, New Zealand White rabbits were administered Compound 1, and plasma and ocular samples were collected at pre-determined time points. Compound 1 formulations were prepared fresh on each day of dosing.
(§2) Ocular tissue samples from both eyes of each animal were collected and weights were recorded. Plasma and ocular tissue sample concentrations of Compound 1 were determined by LC-MS/MS.
New Zealand White rabbits weighing 2.5 to 3.5 kg were used on this study. Rabbits were housed one per cage. Animals were not fasted and only healthy animals with no ocular illness were used. Two rabbits per group were sacrificed at each of four ocular tissue sampling time points for a total of eight rabbits per group.
(§3) Animals were anesthetized for ocular (topical) and intravitreal dosing following the 12IA7 IACUC protocol. Each rabbit received a bolus dose of test formulation either via topical ocular administration 3 times daily on Days 1 and 2 (at 0, 6, and 12 hours), and once on Day 3 (at 0 hours) into both eyes; via intravitreal administration into both eyes once on Day 1 (at 0 hours); or via subcutaneous administration 2 times daily on Days 1 and 2 (at 0 and 8 hours) and once daily on Day 3 (at 0 hours). Doses were given within an approximately 1 hour window each day where applicable.
Each blood sample was collected on Day 3 post dose at pre-determined time points from the rabbits via an ear vessel and placed into chilled polypropylene tubes containing sodium heparin as an anticoagulant. Samples were spun by centrifuge at 4° C. and 3,000× g for 5 minutes. Samples were maintained chilled throughout processing. Each plasma sample was placed on dry ice and stored in a freezer at −60° C. to −80° C. pending bioanalysis.
(§4) An LC-MS/MS method was developed for the determination of Compound 1 in rabbit aqueous tissues (plasma, aqueous and vitreous humor) and solid ocular tissue samples. A pre-study standard curve was analyzed to determine the specificity, range, and lower limit of quantitation of the method. Plasma and tissue homogenate study samples were extracted and analyzed. All the samples were treated identically to the standards.
(§5) One eight-point standard curve was used in each analytical batch. To be accepted, each batch must have had at least five of eight standards with accuracy within ±20% of nominal, except at the lower limit of quantification (LLOQ), where ±25% was acceptable.
Pharmacokinetic parameters were calculated from the time course of the plasma concentration. The maximum plasma concentration (Cmax) and time to the maximum plasma drug concentration (Tmax) were the observed values for each concentration-time profiles. The area under the plasma drug concentration-time curve (AUClast, with last being from time 0 to the last quantifiable point) was calculated using the trapezoidal formula. The mean residence time MRTlast was calculated as a ratio of AUMClast (area under the first movement curve) to AUClast.

[2] = Example 2 aqueous humor concentrations; format: in vivo, male New Zealand White rabbits; conditions: intravitreal, topical ocular, subcutaneous
Experimental: as §1, §2, §3
On Day 1, for intravitreal administration, or on Day 3, for topical ocular and subcutaneous administration, at the appropriate ocular tissue collection time points, animals were euthanized and both eyes were enucleated immediately. Following enucleation, each eye was rinsed with phosphate-buffered saline. Ocular tissue samples from both eyes of each animal were collected at predetermined time points and weights were recorded. All the samples were frozen immediately on dry ice, and stored at −60° C. to −80° C. pending bioanalysis.
as §4, §5

- systemic exposure, as measured in plasma [1]: confirmed
SMILES: COC(=O)N[C@@H](Cc1ccccc1)C(=O)N[C@@H](Cc1ccc(NS(=O)(=O)O)cc1)c1csc(-c2cccs2)n1 [Compound 1]
- rank order of exposure in aqueous and vitreous humor by route [2]: intravitreal>>topical ocular>subcutaneous
